The values below come from patent US9540385B2, “Pyrrolopyrimidine compounds as kinase inhibitors” (Pharmacyclics LLC, priority 2012, dated 2017).

Holding throughout (type): biochemical
Details in all cases: kinase assay by one of methods A, B or C

One experiment has as its target T1, BTK (Homo sapiens, UniProt Q06187).
T1 construct: purified from insect cells as a full-length construct containing a N-terminal 6×-His tag; His6 (N); made in house; host or cells: insect cells (baculovirus, Sf21)
In words: Btk in vitro inhibitory activity / inhibition of a panel of kinases (TR-FRET, mobility shift or radiometric filter binding). A general note: Time-resolved FRET reads energy transfer from a long-lived donor to a nearby acceptor.

The next experiment has as its target EGFR (Homo sapiens, UniProt P00533). In words: Inhibition of a panel of kinases: EGFR. On the procedure:
(§1) Btk kinase activity is determined using a time-resolved fluorescence resonance energy transfer (TR-FRET) methodology. Measurements are performed in a reaction volume of 50 μL using 96-well assay plates. Kinase enzyme, inhibitor, ATP (at the Km for the kinase), and 1 μM peptide substrate (Biotin-AVLESEEELYSSARQ-NH2) are incubated in a reaction buffer composed of 20 mM Tris, 50 mM NaCl, MgCl2 (5-25 mM depending on the kinase), MnCl2 (0-10 mM), 1 mM DTT, 0.1 mM EDTA, 0.01% bovine serum albumin, 0.005% Tween-20, and 10% DMSO at pH 7.4 for one hour. The reaction is quenched by the addition of 1.2 equivalents of EDTA (relative to divalent cation) in 25 μL of 1× Lance buffer (Perkin-Elmer). Streptavidin-APC (Perkin-Elmer) and Eu-labeled p-Tyr100 antibody (Perkin-Elmer) in 1× Lance buffer are added in a 25 μL volume to give final concentrations of 100 nM and 2.5 nM, respectively, and the mixture is allowed to incubate for one hour. The TR-FRET signal is measured on a multimode plate reader with an excitation wavelength (λEx) of 330 nm and detection wavelengths (λEm) of 615 and 665 nm. Activity is determined by the ratio of the fluorescence at 665 nm to that at 615 nm. For each compound, enzyme activity is measured at various concentrations of compound. Negative control reactions are performed in the absence of inhibitor in replicates of six, and two no-enzyme controls are used to determine baseline fluorescence levels. Inhibition constants, Ki(app), ware obtained using the program BatchKi (Kuzmic et al. (2000), Anal. Biochem. 286:45-50). IC50s are obtained according to the equation: IC50={Ki(app)/(1+[ATP]/Km^ATP)}+[E]total/2;
(§2) For all kinases, [ATP]=Km^ATP, [Btk]total=0.5 nM and [Lck]total=6 nM.
(§3) Kinase activity is measured in vitro using electrophoretic mobility shift assay. The kinase reactions are assembled in a total volume of 25 μL in 384 well plates. The reactions comprise: BTK enzyme (1 nM, N-terminal His6-tagged, recombinant, full-length, human BTK purified from baculovirus Sf21 insect cell system), inhibitor, ATP ([…] the apparent Km for the kinase), fluorescently labeled peptide substrate (1 μM, FAM-GEEPLYWSFPAKKK-NH2) in a reaction buffer composed of 100 mM HEPES, pH7.5, 5 mM MgCl2 1 mM DTT, 0.1% bovine serum albumin, 0.01% Triton X-100, and 1% DMSO. The reaction is incubated for one hour and is quenched by the addition of 45 μL of termination buffer (100 mM HEPES, pH7.5, 0.01% Triton X-100, 30 mM EDTA). The terminated reactions are analyzed using 12 channel LabChip® 3000 microfluidic detection instrument (Caliper Life Sciences). The enzymatic phosphorylation of the peptide results in a change in net charge, enabling electrophoretic separation of product from substrate peptide. As substrate and product peptides are separated, two peaks of fluorescence are observed. Change in the relative fluorescence intensity of the substrate and product peaks is the parameter measured, reflecting enzyme activity. In the presence of an inhibitor, the ratio between product and substrate is altered: the signal of the product decreases, while the signal of the substrate increases.
(§4) Activity in each sample is determined as the product to sum ratio (PSR):P/(S+P), where P is the peak height of the product peptide and S is the peak height of the substrate peptide. For each compound, enzyme activity is measured at various concentrations (12 concentrations of compound spaced by 3× dilution intervals). Negative control samples (0%-inhibition in the absence of inhibitor) and positive control samples (100%-inhibition, in the presence of 20 mM EDTA) are assembled in replicates of four and are used to calculate %-inhibition values for each inhibitor at each concentration. Percent inhibition (Pinh) is determined using following equation: […]

The target in another experiment is LCK (Homo sapiens, UniProt P06239). In words: Inhibition of a panel of kinases: LCK. The method, then:
as §1, §2, §3, §4

The structures appear in SMILES notation.

T1 sequence (Q06187 whole entry): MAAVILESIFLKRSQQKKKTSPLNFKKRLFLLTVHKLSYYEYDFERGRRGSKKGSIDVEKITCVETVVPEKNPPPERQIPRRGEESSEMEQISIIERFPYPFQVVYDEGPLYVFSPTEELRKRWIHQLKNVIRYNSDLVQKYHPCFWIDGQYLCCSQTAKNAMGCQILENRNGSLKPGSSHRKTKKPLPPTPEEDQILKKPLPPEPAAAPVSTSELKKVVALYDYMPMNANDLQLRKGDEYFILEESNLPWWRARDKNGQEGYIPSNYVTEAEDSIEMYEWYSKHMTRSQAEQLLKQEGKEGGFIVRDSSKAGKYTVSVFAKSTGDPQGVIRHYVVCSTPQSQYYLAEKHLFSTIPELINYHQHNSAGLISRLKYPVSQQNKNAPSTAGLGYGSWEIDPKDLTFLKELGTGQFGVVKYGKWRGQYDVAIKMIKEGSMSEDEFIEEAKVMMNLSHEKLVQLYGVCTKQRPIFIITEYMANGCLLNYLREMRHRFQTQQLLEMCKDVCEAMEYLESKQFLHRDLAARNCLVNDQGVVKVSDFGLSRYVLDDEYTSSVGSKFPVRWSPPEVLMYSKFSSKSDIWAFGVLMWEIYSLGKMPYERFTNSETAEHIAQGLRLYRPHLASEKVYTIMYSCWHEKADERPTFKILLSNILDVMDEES
Sequence of LCK (P06239 whole entry, species assumed): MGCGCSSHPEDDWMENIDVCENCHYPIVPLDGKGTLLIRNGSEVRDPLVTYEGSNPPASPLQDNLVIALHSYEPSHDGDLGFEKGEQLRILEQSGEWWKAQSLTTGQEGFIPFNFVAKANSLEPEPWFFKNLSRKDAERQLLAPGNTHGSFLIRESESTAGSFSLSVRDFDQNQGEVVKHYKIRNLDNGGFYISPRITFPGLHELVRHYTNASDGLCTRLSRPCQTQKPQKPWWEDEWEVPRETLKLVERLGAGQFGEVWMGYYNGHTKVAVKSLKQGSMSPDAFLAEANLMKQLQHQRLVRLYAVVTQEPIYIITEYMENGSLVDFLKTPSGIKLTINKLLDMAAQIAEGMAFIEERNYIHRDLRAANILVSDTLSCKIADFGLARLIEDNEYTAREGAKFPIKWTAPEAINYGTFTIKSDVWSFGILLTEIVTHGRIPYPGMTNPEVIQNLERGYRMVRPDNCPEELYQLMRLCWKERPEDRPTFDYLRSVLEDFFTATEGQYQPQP
Sequence of EGFR (P00533 25-1210, species assumed): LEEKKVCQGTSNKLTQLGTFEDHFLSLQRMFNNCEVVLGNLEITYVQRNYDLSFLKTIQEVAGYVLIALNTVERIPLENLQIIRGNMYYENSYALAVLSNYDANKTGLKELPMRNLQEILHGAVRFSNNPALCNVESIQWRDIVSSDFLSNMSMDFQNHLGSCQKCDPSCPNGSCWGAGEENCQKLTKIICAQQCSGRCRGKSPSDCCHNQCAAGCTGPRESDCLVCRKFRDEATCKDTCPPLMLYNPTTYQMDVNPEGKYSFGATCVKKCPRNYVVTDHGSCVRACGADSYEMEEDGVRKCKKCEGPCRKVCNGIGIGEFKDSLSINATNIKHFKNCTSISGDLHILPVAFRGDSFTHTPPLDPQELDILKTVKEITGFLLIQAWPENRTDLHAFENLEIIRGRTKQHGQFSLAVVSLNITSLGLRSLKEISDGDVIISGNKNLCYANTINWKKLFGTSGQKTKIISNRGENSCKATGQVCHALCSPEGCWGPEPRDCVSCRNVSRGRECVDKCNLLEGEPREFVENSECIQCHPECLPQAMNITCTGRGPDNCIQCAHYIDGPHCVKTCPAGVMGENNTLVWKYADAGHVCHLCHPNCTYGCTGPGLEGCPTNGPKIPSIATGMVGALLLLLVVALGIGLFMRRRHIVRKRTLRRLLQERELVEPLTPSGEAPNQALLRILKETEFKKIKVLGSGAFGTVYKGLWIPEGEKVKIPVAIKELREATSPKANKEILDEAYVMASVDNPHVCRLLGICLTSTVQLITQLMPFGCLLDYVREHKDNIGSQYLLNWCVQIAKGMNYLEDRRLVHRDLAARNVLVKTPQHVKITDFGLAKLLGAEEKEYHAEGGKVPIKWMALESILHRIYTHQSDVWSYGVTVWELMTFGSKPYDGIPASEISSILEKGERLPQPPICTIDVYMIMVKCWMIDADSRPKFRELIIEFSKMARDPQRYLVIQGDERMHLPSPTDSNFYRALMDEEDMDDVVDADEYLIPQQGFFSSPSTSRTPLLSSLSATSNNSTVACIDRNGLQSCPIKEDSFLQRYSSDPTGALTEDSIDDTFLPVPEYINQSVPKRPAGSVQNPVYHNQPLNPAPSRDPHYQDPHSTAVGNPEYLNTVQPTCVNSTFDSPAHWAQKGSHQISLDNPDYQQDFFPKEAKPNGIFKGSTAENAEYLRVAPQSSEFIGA

In general, IC50 refers to the concentration needed to halve the response being measured. Regarding `COc1cc(-c2c(Cl)n(-c3cccc(N(C)C(=O)/C=C/CN(C)C4CC4)c3)c3ncnc(N)c23)ccc1C` [Compound 36, (E)-N-(3-(4-amino-6-chloro-5-(3-methoxy-4-methylphenyl)-7H-pyrrolo[2,3-d]pyrimidin-7-yl)phenyl)-4-(cyclopropyl(methyl)amino)-N-methylbut-2-enamide], the IC50 at BTK is under 100 nM; on EGFR, 1000 to 10000 nM; against LCK, 1000 to 10000 nM.
